# Laboratory results from patent US11254944B2, “Agrobacterium derived cell penetrating peptides as nanocarriers” (priority 2017, dated 2022).
# Where a SMILES comes first, the peptide text is derived from it. The star is where a group is joined. FITC = O=C1OC2(c3ccc(O)cc3Oc3cc(O)ccc32)c2ccc(NC(=S)*)cc21
# Assays:
# [1] = system: mesophyll protoplasts of T. aestivum; test: Cellular uptake of FITC-Vir in mesophyll protoplasts (confocal microscopy, fluorimetry); format: cell-based; settings: for CPP activity compared with the parent peptide: 15 μM
# Method: FIG. 2: illustrates the cellular internalization of FITC-Vir in mesophyll protoplasts of T. aestivum (A) Confocal microscopic images of cellular uptake (a) untreated (No peptide) (b) Vir (15 μM) (c) Tat (5 μM) (d) M-Tat (5 μM) (e) Dextran Sulphate (5 μM). (B) Quantitative estimation of uptake in protoplasts as assessed by fluorimetry.
# In the said embodiment, a process for identification of optimum concentration and mechanism of cellular uptake of Vir of the peptide nano-carrier in the mesophyll protoplasts of T. aestivum is described below and illustrated in FIG. 2 by employing several endocytic inhibitors such as sodium azide, nocodazole, cytochalasin-D cytochalasin D, and chlorpromazine for blocking different energy-dependent pathways.
# It is observed that with increasing concentration, the number of cells internalizing the peptide also increases proportionally.
# (§1) FIG. 2 illustrates that in case of protoplasts, the uptake of Vir is affected in the presence of either endocytic inhibitors.
# The viability of the protoplasts is affected at higher concentrations of the peptide, as a drop of 20-30% at 15 μM and 60-70% at 30 μM in the percentage of viable cells is observed with respect to untreated cells (viability 90%).
# HeLa cells [2] = test: Reporter protein (β-galactosidase) delivery by Vir in HeLa cells; format: cell-based; settings: β-galactosidase 1 μg, Vir 15 μM
# Excerpt: (§2) FIG. 6: illustrates an analysis of cargo delivery ability of Vir peptide in plant and mammalian systems. Macromolecule delivery by Vir in (A) Protoplast of wheat (B) leaf bases (C) root tips with (a) no peptide (b) GUS buffer only (c) β-glucuronidase only (d) Vir only (e) Vir-β-galactosidase; (D) HeLa cells with (a) non peptide (b) X-gal staining solution only (c) β-galactosidase only (d) Vir only (e) Vir-β-galactosidase.
# (§3) In one embodiment, the ability of the peptide nanocarrier to deliver macromolecular cargoes in cells is evaluated by using β-glucuronidase enzyme as the reporter protein whereas β-galactosidase is employed for delivery in mammalian cells. The reporter proteins are non-covalently complexed with peptide nanocarrier, SEQ ID NO: 3 with the sequence KRPRRKRARGNRR at room temperature for 1 hr. The reporter proteins are used at a concentration of 1 μg while the peptide nanocarrier is used at the optimized concentration that is, 15 μM for complex formation. The peptide-protein complexes thus formed, were incubated with mammalian cells, plant protoplasts and tissues (root tips and leaf bases) further for 1 hour at 18-37 deg C. and room temperature, at pH range from 5.5 to 7.5 respectively. The enzyme delivery by peptide nanocarrier is examined by staining the cells with respective staining solutions. […]
# [3] = system: root tips and leaf bases of T. aestivum; test: Translocation of Vir in meristematic tissues (root tips, leaf bases); format: cell-based; settings: 5-40 μM
# Method: FIG. 3: illustrates the translocation of Vir in various tissues of T. aestivum (A) leaf bases (B) root tips. Different panels represent (a) Untreated (b) Dextran sulphate (5 μM) (c) M-Tat (5 μM) (d) Tat (5 μM) (e) Vir: 5 μM (f) 10 μM (g) 15 μM (h) 20 μM (i) 30 μM (j) 40 μM.
# In another embodiment, a method of targeting and delivering macromolecules to a meristematic tissue that is, root tips and leaf bases, of T. aestivum(wheat plant) using the agrobacterium derived cell penetrating peptide nanocarrier Vir includes incubating the meristematic tissues that is, root tips and leaf bases, of T. aestivum with the peptide nanocarrier.
# In the said embodiment, a process for identification of optimum concentration of the peptide nanocarrier in the meristematic tissues of T. aestivum is substantially the same as identification of optimum concentration of the nano-carrier Vir in the mesophyll protoplasts of T. aestivum as discussed above and is illustrated in FIG. 3.
# HeLa cells [4] = test: Cellular uptake of FITC-Vir in HeLa cells (confocal microscopy, flow cytometry); format: cell-based
# Method: FIG. 4: illustrates the cellular translocation of FITC-Vir in HeLa cells (A) confocal microscopy (a) Untreated (b) Vir (15 μM) (c) Tat (5 μM) (d) M-Tat (5 μM) (e) Dextran Sulphate (5 μM). (B) Quantitative estimation of uptake in HeLa cells as assessed by flow cytometry.
# as §1
# In one such embodiment, a method of targeting and delivering macromolecules to HeLa cells, as representative of mammalian system, using the peptide nanocarrier includes incubating the HeLa cells with the agrobacterium derived cell penetrating peptide nanocarrier Vir.
# (§4) In the said embodiment, a process for identification of optimum concentration of the nano-carrier Vir in the HeLa cells is substantially the same as identification of optimum concentration of the nano-carrier Vir in the mesophyll protoplasts of T. aestivum as discussed above and is illustrated in FIG. 4. It is observed that the internalization in HeLa cells starts from 5 μM but a distinct nuclear localization is observed from 15 μM onwards as shown in FIG. 4. As observed with protoplasts, the peptide uptake in HeLa cells also increases with increasing concentration of peptide with 60-70% cells showing uptake at 15 μM and more than 90% cells showing uptake at 30 μM. However, unlike protoplasts, the viability of HeLa cells is not compromised greatly as 94% cells remained viable at 15 μM and 84% cells at 30 μM.
# root tips and leaf bases = test: Reporter protein (β-glucuronidase) delivery by Vir in root tips and leaf bases; format: cell-based, T. aestivum; settings: β-glucuronidase 1 μg, Vir 15 μM
# Excerpt: as §2, §3
# [5] = Viability of HeLa cells after peptide incubation; format: cell-based; settings: human, read-out: cells remained viable
# Method: as §4
# Protoplast of wheat = test: Reporter protein (β-glucuronidase) delivery by Vir in wheat protoplasts; format: cell-based, T. aestivum; settings: β-glucuronidase 1 μg, Vir 15 μM
# Excerpt: as §2, §3
Molecule,cells show uptake [1],concentration from which prominent nuclear localization is observed [1] [µM],number of cells exhibiting cellular uptake ([1]; distinct nuclear localization),"uptake in the presence of endocytic inhibitors ([1]; sodium azide, nocodazole, cytochalasin D, chlorpromazine)",efficiency of β-galactosidase delivery (HeLa cells [2]),uptake in the tissues [3],concentration from which distinct nuclear localization is observed (HeLa cells [4]) [µM],concentration from which internalization starts (HeLa cells [4]) [µM],cells showing uptake (HeLa cells [4]; 15 μM),cells showing uptake (HeLa cells [4]; 30 μM),cellular uptake reduced (HeLa cells [4]; at 4° C.) [%],cellular uptake reduced (HeLa cells [4]; in presence of chlorpromazine) [%],cellular uptake in presence of other inhibitors (HeLa cells [4]; other endocytic inhibitors),delivery efficiency (root tips and leaf bases; leaf bases) [%],delivery efficiency (root tips and leaf bases; root tips) [%],viability at 15 µM ([5]; 15 μM) [%],viability at 30 µM ([5]; 30 μM) [%],delivery efficiency (Protoplast of wheat) [%],CPP activity compared with the parent peptide [1],CPP activity compared with the parent peptide (HeLa cells [4]; 15 μM)
"C[C@H](NC(=O)[C@H](CCCNC(=N)N)NC(=O)[C@H](CCCCN)NC(=O)[C@H](CCCNC(=N)N)NC(=O)[C@H](CCCNC(=N)N)NC(=O)[C@@H]1CCCN1C(=O)[C@H](CCCNC(=N)N)NC(=O)[C@H](CCCCN)NC(=S)Nc1ccc2c(c1)C(=O)OC21c2ccc(O)cc2Oc2cc(O)ccc21)C(=O)N[C@@H](CCCNC(=N)N)C(=O)NCC(=O)N[C@@H](CC(N)=O)C(=O)N[C@@H](CCCNC(=N)N)C(=O)N[C@@H](CCCNC(=N)N)C(=O)O [Vir, KRPRRKRARGNRR] ({FITC}-KRPRRKRARGNRR-OH; N-terminus and C-terminus assumed)",10-15%,≥ 15,50-60%,affected,more than 90%,increases with increasing concentration of the peptide,≥ 15,≥ 5,60-70%,more than 90%,20,20,remained unaffected,90,90,94,84,50,,
"KAPARKRARGNRR [M-Vir1, mutated VirD2 peptide, mutation in KRPR to KAPA]",,,,,,,,,,,,,,,,,,,increased,increased
"KRPRRKAAAGNRR [M-Vir2, mutated VirD2 peptide, mutation in RKRAR to RKAAA]",,,,,,,,,,,,,,,,,,,remains similar to the parent peptide,remains similar to the parent peptide
